Here are results for one compound from ChEMBL document CHEMBL4011612, “4-Anilino-pyrimidine, novel aldosterone synthase (CYP11B2) inhibitors bearing pyrimidine structures” (Bioorg Med Chem Lett, 2017).

Values after ≈ are worked out from the molar mass of the structure shown. Some results are limits rather than exact numbers.

One may read the AUC as concentration integrated over time. In general, solubility refers to how much of the substance goes into solution per volume. Broadly, the IC50 is the concentration that gives 50% inhibition. By inhibition is commonly meant the relative decrease from the control value, in per cent. The Cmax is the maximum level reached in the sampled fluid or tissue. In general, Tmax refers to the time at which the peak concentration occurs. The term half-life denotes the time needed for the level to fall by half in the phase considered.

Series [1] is described as follows: Total AUC in cynomolgus monkey at 3 mg/kg, po administered as single dose. In kind it is ADME, organism-based, Macaca fascicularis. Further details: dose 3 mg/kg, time AUCmax, route oral. As to conditions: in vivo.
The nature of series [2]: Solubility of the compound at pH 6.8. In kind it is physicochemical. As to conditions: buffer.
The target of series [3] is T1, Cytochrome P450 11B2, mitochondrial (Mus musculus, UniProt P15539).
T1 sequence (P15539 whole entry): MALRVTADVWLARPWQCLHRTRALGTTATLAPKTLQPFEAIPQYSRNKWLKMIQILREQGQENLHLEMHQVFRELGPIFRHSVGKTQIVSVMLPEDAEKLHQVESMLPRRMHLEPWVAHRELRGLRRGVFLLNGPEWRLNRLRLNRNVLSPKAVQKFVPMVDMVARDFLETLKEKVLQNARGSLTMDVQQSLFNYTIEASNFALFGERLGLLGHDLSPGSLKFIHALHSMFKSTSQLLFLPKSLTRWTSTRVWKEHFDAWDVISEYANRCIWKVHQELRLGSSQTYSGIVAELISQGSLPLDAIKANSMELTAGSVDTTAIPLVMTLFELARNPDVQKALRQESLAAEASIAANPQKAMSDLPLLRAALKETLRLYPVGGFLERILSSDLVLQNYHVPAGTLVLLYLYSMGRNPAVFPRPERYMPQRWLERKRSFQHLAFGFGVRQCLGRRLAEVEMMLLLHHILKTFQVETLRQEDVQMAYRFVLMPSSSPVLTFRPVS
Description: Inhibition of mouse CYP11B2 expressed in HEK293 cells using deoxycorticosterone as substrate pretreated for 1 hr followed by substrate addition after 2 hrs by HTRF assay

The next series deals with CYP2C9 (Homo sapiens, UniProt P11712). In words: Inhibition of CYP2C9 (unknown origin) at 10 uM. In kind it is ADME.
Sequence of CYP2C9 (P11712 whole entry): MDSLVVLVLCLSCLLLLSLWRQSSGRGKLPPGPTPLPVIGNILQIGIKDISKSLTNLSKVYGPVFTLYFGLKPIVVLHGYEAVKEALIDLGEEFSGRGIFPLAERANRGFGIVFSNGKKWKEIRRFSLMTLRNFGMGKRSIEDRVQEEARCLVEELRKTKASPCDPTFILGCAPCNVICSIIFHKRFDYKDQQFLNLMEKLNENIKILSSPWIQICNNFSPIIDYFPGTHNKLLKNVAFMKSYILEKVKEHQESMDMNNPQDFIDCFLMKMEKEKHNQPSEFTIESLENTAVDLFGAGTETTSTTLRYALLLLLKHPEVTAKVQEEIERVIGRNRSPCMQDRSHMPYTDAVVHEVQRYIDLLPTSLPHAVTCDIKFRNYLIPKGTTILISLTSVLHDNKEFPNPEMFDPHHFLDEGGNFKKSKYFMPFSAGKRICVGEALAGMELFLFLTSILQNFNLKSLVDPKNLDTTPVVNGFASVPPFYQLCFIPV
Series [4] in a line: Cmax in cynomolgus monkey at 3 mg/kg, po administered as single dose. In kind it is ADME, organism-based, Macaca fascicularis. Further details: dose 3 mg/kg, route oral. As to conditions: in vivo.
A further series addresses CYP3A4 (Homo sapiens, UniProt P08684). In words: Inhibition of CYP3A4 (unknown origin) at 10 uM.
A further series has as its target CYP2D6 (Homo sapiens, UniProt P10635). In words: Inhibition of CYP2D6 (unknown origin) at 10 uM. In kind it is ADME.
A short description of series [5]: Tmax in cynomolgus monkey at 3 mg/kg, po administered as single dose. In kind it is ADME, organism-based, Macaca fascicularis. As to conditions: in vivo.
The target of the next series is T2, CYP19 (aromatase) (Homo sapiens, UniProt P11511).
T2 sequence (P11511 whole entry): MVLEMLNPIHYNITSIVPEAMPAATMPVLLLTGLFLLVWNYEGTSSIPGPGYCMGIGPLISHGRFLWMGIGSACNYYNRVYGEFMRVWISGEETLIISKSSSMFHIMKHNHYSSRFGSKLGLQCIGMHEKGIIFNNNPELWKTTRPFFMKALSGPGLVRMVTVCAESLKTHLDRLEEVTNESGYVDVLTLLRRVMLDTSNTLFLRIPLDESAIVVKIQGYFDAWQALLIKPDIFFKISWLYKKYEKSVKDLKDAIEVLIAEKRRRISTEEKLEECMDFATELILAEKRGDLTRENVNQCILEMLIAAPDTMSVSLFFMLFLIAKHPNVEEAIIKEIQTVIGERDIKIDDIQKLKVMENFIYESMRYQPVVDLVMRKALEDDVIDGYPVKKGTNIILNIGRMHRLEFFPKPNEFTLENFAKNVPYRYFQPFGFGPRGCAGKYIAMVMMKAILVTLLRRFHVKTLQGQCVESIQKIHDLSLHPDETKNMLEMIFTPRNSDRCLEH
In words: Inhibition of CYP19 (unknown origin) at 1 uM.

In series [6] the target is T3, Cytochrome P450 11B1, mitochondrial (Homo sapiens, UniProt P15538).
T3 sequence (P15538 whole entry): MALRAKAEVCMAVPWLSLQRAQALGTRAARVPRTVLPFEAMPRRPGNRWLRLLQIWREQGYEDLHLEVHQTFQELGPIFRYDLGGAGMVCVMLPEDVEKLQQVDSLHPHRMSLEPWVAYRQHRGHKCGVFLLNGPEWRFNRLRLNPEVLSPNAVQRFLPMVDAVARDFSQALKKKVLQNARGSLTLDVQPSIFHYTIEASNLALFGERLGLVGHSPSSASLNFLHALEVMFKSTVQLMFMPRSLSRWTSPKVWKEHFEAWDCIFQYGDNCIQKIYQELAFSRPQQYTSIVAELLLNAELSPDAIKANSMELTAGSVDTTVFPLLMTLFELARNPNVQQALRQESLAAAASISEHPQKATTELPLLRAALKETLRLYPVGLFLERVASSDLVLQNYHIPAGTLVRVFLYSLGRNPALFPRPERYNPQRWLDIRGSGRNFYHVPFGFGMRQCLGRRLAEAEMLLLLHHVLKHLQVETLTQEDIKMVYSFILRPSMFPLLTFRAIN
Put plainly: Inhibition of human CYP11B1 expressed in HEK293A cells. In kind it is ADME, cell-based, HEK293.

Series [7] in a line: Solubility of the compound at pH 1.2. In kind it is physicochemical. The following applies: buffer.
Series [8] in a line: Plasma protein binding in mouse. In kind it is ADME, cell-free. The following applies: read-out: PPB (converted).
In series [9] the target is T4, Cytochrome P450 11B2, mitochondrial (Homo sapiens, UniProt P19099).
T4 sequence (P19099 whole entry): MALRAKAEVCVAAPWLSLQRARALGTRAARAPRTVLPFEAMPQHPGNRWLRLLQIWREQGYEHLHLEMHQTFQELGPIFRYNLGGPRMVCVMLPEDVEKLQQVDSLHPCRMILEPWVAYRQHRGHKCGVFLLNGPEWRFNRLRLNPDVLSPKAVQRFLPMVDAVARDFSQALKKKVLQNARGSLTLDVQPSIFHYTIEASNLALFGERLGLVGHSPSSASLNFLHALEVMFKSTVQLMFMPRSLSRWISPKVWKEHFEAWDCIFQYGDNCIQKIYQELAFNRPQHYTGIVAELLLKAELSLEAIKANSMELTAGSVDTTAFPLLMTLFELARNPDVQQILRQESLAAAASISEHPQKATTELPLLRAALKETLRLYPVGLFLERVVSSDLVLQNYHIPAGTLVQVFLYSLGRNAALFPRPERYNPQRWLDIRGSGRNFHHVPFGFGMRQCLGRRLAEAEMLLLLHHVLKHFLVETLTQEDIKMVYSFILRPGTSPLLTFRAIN
Description: Inhibition of human CYP11B2 expressed in HEK293A cells using deoxycorticosterone as substrate pretreated for 1 hr followed by substrate addition measured after 1 hr by HTRF assay

Another series has as its system Liver. Put plainly: Metabolic stability in human liver microsomes. In kind it is ADME, microsome. On the technique in general: Microsomes from liver hold many membrane-bound enzymes, among them those of drug oxidation.
Series [10] can be described thus: Half life in cynomolgus monkey at 3 mg/kg, po administered as single dose. It counts as ADME, organism-based, Macaca fascicularis. As to conditions: in vivo.
The target in a further series is T5, CYP1A2 (Homo sapiens, UniProt P05177).
T5 sequence (P05177 whole entry): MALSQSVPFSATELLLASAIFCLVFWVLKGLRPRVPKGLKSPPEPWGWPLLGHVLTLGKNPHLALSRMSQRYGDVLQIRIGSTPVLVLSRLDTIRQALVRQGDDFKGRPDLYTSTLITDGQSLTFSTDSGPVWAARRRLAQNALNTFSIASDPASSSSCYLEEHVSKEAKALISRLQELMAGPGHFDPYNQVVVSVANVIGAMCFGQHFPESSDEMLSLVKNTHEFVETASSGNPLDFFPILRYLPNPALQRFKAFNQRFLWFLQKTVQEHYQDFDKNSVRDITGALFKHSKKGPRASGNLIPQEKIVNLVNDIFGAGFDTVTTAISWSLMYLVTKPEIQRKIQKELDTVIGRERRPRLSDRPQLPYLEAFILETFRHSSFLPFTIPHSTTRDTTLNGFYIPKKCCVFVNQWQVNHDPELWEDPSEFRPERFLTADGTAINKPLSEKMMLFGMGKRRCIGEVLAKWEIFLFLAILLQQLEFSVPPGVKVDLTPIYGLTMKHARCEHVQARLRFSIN
In words: Inhibition of CYP1A2 (unknown origin) at 10 uM. In kind it is ADME.

Sequence of CYP3A4 (P08684 whole entry): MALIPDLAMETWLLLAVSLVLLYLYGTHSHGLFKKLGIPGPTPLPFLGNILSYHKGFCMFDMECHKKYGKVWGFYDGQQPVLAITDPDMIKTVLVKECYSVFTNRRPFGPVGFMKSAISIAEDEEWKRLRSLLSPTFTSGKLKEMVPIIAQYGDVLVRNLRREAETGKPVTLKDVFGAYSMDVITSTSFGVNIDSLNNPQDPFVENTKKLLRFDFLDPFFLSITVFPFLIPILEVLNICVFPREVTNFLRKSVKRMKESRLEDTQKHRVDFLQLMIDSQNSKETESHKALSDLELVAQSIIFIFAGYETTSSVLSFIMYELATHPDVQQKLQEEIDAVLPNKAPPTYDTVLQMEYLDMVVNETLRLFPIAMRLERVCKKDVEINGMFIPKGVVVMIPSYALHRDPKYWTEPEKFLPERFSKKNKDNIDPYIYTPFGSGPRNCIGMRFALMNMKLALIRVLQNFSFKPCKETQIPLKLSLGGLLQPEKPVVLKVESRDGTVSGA
Sequence of CYP2D6 (P10635 whole entry): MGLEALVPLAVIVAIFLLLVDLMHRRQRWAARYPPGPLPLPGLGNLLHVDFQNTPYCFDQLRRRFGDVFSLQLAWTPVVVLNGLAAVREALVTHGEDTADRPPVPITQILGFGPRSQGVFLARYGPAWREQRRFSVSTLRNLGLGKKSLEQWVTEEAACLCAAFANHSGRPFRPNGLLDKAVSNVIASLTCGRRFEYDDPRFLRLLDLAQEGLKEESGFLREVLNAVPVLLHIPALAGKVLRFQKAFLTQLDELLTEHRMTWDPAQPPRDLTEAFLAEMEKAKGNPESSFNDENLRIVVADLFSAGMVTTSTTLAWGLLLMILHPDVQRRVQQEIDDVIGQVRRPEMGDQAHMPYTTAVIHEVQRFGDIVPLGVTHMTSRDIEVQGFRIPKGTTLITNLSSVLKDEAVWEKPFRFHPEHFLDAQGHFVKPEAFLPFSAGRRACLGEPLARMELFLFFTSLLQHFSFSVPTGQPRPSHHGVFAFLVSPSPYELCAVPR

In turn, `CS(=O)(=O)N1CCC(C(O)(c2cncnc2Nc2ccc(F)cc2)C(F)(F)F)CC1` (racemic) returned an AUC in [1] of 3300 ng·h/mL. For the same compound, the solubility in series [2] is 260 µg/mL (≈ 580 µM); in series [7], 860 µg/mL (≈ 1920 µM). Further, the IC50 in series [3] came out at 10 nM; in series [6], 2 nM; in [9], 4 nM. For the same compound, the inhibition at 10 µM against CYP2C9 was 3.4%; on CYP3A4 it was 4.1%; at CYP2D6, 5.8%; at CYP1A2, under 0%. The Cmax in series [4] was 515 ng/mL. Further, in series [5], the Tmax came to 2.67 h. Further, the inhibition at 1 µM against CYP19 (aromatase) was determined as 16%. Besides, the fraction unbound in series [8] is 0.185. In the series on Liver, the Stability is reported as 100%. Also, the half-life in [10] was 2.31 h.
